Experiments:
CDK2 = molecular target: T1, CDK2 (Homo sapiens, UniProt P24941); experiment: CDK2 kinase inhibition (Reaction Biology HotSpot); assay type: biochemical; details: single dose of 10 µM, read-out: % Enzyme Inhibitory Activity
T1 construct: purchased Reaction Biology Corp. (Kinase HotSpot service)
Protocol: The in vitro CDK2 kinase inhibition assay was carried out by Reaction Biology Corp. (Reaction Biology Corp., Chester, PA, USA) Kinase HotSpotSM service (http://www.reactionbiology.com).
5. CDK2 kinase inhibitory activity
Reaction Biology Corp. Kinase HotSpotSM service
(http://www.reactionbiology.com) was used for screening of tested compounds. CDK2 Kinase inhibitory activity was assessed by the HotSpot assay platform, which contained specific kinase/substrate pairs along with required cofactors. Base reaction buffer:
0.1 mM Na3VO4, 2 mM DTT, 1% DMSO. Testing compounds were dissolved in 100% DMSO to specific concentration. The serial dilution was conducted by Integra Viaflo Assist in DMSO. The reaction mixture containing the examined compound and 33P-ATP was incubated at room temperature for 2 h and radioactivity was detected by filter-binding method. Kinase activity data were expressed as the percent remaining kinase activity in test samples compared to vehicle (dimethyl sulfoxide) reactions.

MCF-7 cells = experiment: Annexin V-FITC/PI apoptosis assay; assay type: cell-based, human; details: IC50 concentration; for Total (L.R % + U.R %): early + late apoptosis
Protocol: Annexin V-based flow cytometry analysis is a useful tool to investigate whether cell death is pertaining to physiological apoptosis or nonspecific necrosis. Evaluation of the apoptotic effect of bis-indoles 7e and 9a was carried out using AnxV-FITC/DAPI dual staining assay (Figure 4).
The apoptotic action of bis-indoles 7e and 9a was further explored through the investigation of their effect on the phosphatidylserine externalization in breast cancer MCF-7 cells, using Annexin-V-FITC Apoptosis Detection Kit according to manufacturer’s protocol, as reported earlier. […]
4. Annexin V-FITC Apoptosis Assay
Phosphatidylserine externalization was assayed using Annexin V-FITC/PI apoptosis detection kit (BD Biosciences, USA) according to the manufacturer’s instructions. Breast cancer MCF-7 cells were cultured to a monolayer then treated with bis-indoles 7e and 9a at their IC50 concentration. Briefly, cells were then harvested via trypsinization, and rinsed twice in PBS followed by binding buffer. Moreover, cells were re-suspended in 100 μL of binding buffer with the addition of 1 μL of FITC-Annexin V followed by an incubation period of 30 min at 4 °C. Cells were then rinsed in binding buffer and resuspended in 150 μL of binding buffer with the addition of 1 μL of DAPI (1 μg/μL in PBS). Cells were then analyzed using the flow cytometer BD FACS Canto II and the results were interpreted with FlowJo7.6.4 software (Tree Star, Ashland, OR, USA).

Row | inhibition at 10 µM (CDK2) [%] | SMILES | Early Apoptosis (Lower Right %) (MCF-7 cells) [%] | Late Apoptosis (Upper Right %) (MCF-7 cells) [%] | increase in total apoptosis percentage vs control (MCF-7 cells) [fold] | Total (L.R % + U.R %) (MCF-7 cells) [%]
1 | 23 | C=CCN1C(=O)C(=NNC(=O)Cc2c[nH]c3ccccc23)c2ccccc21 [Compound 9a, N′-(1-Allyl-2-oxoindolin-3-ylidene)-2-(1H-indol-3-yl)acetohydrazide] | 7.01 | 15.20 | 16.8 | 22.21
2 | 16 | O=C(Cc1c[nH]c2ccccc12)NN=C1C(=O)Nc2ccc([N+](=O)[O-])cc21 [Compound 7e, 2-(1H-Indol-3-yl)-N′-(5-nitro-2-oxoindolin-3-ylidene)acetohydrazide] | 9.56 | 21.76 | 23.7 | 31.32
